Results published in patent publication US12528784B2, “Alkynyl-(heteroaryl)-carboxamide HCN1 inhibitors” (Hoffmann-La Roche Inc., priority 2019, dated 2026).
pIC50: −log10 of the molar value.

How the values were obtained:
HCN1 = biological target: T1, HCN1 (Homo sapiens, UniProt O60741); assay: HCN1 automated patch clamp current inhibition assay (Ionworks Barracuda); assay type: cell-based; settings: HEK-293 cells stably expressing HCN1; current inhibition during a hyperpolarizing pulse of -100 mV
T1 construct: expressed in transfected cells
T1 sequence (O60741 1-890): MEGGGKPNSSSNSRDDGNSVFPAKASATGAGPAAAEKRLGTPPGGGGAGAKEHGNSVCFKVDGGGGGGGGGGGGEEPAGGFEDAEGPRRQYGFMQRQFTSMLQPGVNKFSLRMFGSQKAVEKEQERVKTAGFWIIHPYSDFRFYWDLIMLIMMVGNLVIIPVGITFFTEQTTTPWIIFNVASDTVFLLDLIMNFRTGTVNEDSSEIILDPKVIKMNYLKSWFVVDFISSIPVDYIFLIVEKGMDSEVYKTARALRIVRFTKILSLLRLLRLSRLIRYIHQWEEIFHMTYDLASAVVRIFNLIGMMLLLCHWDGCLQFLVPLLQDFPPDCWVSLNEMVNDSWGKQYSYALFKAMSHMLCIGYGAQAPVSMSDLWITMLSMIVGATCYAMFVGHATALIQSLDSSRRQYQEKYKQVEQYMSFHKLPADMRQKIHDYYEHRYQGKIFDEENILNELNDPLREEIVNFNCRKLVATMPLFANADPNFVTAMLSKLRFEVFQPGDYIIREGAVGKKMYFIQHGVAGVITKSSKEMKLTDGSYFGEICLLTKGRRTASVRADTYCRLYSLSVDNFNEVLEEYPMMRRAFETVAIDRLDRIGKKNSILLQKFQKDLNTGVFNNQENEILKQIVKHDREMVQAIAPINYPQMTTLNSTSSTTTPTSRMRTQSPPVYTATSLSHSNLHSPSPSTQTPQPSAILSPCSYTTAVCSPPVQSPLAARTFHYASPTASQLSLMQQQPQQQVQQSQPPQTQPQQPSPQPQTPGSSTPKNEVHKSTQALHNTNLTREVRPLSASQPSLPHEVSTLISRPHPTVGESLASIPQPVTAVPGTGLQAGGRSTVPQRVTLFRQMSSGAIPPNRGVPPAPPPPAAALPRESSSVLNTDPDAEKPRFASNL
Experimental: (§1) In vitro, high-throughput cellular electrophysiology was employed to detect voltage- and use-dependence of compounds in single concentration screening and IC50 determination for library and medicinal chemistry profiling compounds in 384 well plates.
(§2) Cell cultures were maintained in DMEM/F12 cell growth media containing FBS and appropriate antibiotics at 37° C., 5% CO2 for a maximum of 20 passages. At a time point of 40-72 hours prior to assay, the expression of HCN protein in the cells is induced by addition of tetracyclin. Cells may be incubated at 27° C. for 2-24 hours of induction. […] Cells were harvested at 80% confluency and resuspended in extracellular buffer and added to wells. A freshly prepared Escin solution was added to intracellular buffer and applied to establish whole cell recording via perforated patch clampling by APC.
(§3) Currents through activated channels were measured directly by APC by employing hyperpolarizing voltage steps. The activation window was increased and stabilized by the addition of cell permeable Br-cAMP. Baselines were established for both use- and voltage-dependence protocols using a −30 mV holding potential and multiple test pulses at −100 mV or by 20 mV steps from −120 to 0 mV, respectively. Test compounds were added after baseline recordings followed by a 10 min incubation, voltage-dependency protocol recording, and use-dependency recording. Data was corrected for baseline and rundown (well based) and normalized for % inhibition (plate based). Five previously reported HCN inhibitors of varying potencies and selectivities and zatebradine were used for run to run and plate to plate quality controls. […] Percent inhibition was analysed at −80, −100, −120 mV of the voltage-dependency protocol and at pulse 0 and 50 of the use-dependency protocols. Selectivity was assessed against HCN2, HCN3, and HCN4 overexpressing cell lines using similar methods. As HCN4 has a slower activation than the other HCN channels, activation was extended to achieve steady state activation.

HCN3 = biological target: T2, HCN3 (Homo sapiens, UniProt Q9P1Z3); assay: HCN3 automated patch clamp current inhibition assay (Ionworks Barracuda); assay type: cell-based; settings: HEK-293 cells stably expressing HCN3; current inhibition during a hyperpolarizing pulse of -100 mV
T2 construct: expressed in transfected cells
T2 sequence (Q9P1Z3 1-774): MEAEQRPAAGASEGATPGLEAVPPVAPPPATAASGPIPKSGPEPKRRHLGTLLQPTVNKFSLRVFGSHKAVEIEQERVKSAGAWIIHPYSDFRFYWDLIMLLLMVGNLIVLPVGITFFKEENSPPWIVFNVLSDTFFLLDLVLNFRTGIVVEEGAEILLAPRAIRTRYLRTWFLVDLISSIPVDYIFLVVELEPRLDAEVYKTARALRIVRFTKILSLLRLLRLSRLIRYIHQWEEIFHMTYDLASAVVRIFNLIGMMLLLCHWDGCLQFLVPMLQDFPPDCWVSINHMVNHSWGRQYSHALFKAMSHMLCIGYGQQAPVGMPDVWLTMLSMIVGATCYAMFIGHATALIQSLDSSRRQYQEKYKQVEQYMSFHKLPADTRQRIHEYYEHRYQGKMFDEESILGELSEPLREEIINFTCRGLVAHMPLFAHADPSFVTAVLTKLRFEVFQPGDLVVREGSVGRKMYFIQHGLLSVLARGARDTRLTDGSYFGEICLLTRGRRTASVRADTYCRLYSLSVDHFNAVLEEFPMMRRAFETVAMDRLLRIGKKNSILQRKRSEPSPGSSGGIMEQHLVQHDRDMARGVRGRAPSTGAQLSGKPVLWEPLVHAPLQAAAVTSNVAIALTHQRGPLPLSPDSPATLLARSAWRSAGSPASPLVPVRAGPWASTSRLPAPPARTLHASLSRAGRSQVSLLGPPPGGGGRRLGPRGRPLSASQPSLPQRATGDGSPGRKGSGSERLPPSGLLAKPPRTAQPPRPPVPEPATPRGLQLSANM
Experimental: as §1, §2, §3

`Cc1cnc(-n2c(C(N)=O)nc(C#Cc3ccnc(Cl)c3C)c2C)cn1` [Example 23, 4-[2-(2-Chloro-3-methyl-4-pyridyl)ethynyl]-5-methyl-1-(5-methylpyrazin-2-yl)imidazole-2-carboxamide] showed a pIC50 (HCN1) of 6.52 and a pIC50 (HCN3) of 5.62.

Compound `Cc1ccc(-n2c(C(N)=O)cc(C#Cc3ccnc(Cl)c3)c2C)cn1` [Example 31, 4-[2-(2-Chloro-4-pyridyl)ethynyl]-5-methyl-1-(6-methyl-3-pyridyl)pyrrole-2-carboxamide] has a pIC50 (HCN1) of 6.64 and a pIC50 (HCN3) of 4.63.

`Cc1cccc(C#Cc2nc(C(N)=O)n(-c3ccc(C)nc3)c2C)c1` [Example 10, 5-Methyl-1-(6-methylpyridin-3-yl)-4-(m-tolylethynyl)-1H-imidazole-2-carboxamide] was tested, and the pIC50 (HCN1) was 6.24 and the pIC50 (HCN3) was < 4.40.

For `Cc1ccc(-n2c(C(N)=O)nc(C#Cc3ccnc(Cl)c3)c2C)cn1` [Example 6, 4-(2-Chloro-pyridin-4-ylethynyl)-5-methyl-1-(6-methyl-pyridin-3-yl)-1H-imidazole-2-carboxylic Acid Amide], the pIC50 (HCN1) was 6.59 and the pIC50 (HCN3) was < 4.40.

`COc1ccc(-n2c(C(N)=O)nc(C#Cc3ccnc(Cl)c3C)c2C)cn1` [Example 27, 4-[2-(2-Chloro-3-methyl-4-pyridyl)ethynyl]-1-(6-methoxy-3-pyridyl)-5-methyl-imidazole-2-carboxamide] gave a pIC50 (HCN1) of 7.29 and a pIC50 (HCN3) of 4.42.

With `COc1cccc(C#Cc2nc(C(N)=O)n(-c3ccc(C)nc3)c2C)c1` [Example 8, 4-((3-Methoxyphenyl)ethynyl)-5-methyl-1-(6-methylpyridin-3-yl)-1H-imidazole-2-carboxamide] the pIC50 (HCN1) was 6.34 and the pIC50 (HCN3) was 4.44.

With `NC(=O)c1nc(C#Cc2ccnc(Cl)c2)cn1-c1ccc(F)cc1` [Example 42, 4-(2-Chloro-pyridin-4-ylethynyl)-1-(4-fluoro-phenyl)-1H-imidazole-2-carboxylic Acid Amide] the pIC50 (HCN1) was 5.60 and the pIC50 (HCN3) was < 4.40.

For `Cc1c(C#Cc2nc(C(N)=O)n(-c3ccc(Cl)nc3)c2C)ccnc1Cl` [Example 26, 4-[2-(2-Chloro-3-methyl-4-pyridyl)ethynyl]-1-(6-chloro-3-pyridyl)-5-methyl-imidazole-2-carboxamide], the pIC50 (HCN1) was 6.62 and the pIC50 (HCN3) was < 4.40.

In the case of `Cc1ccc(-n2c(C(N)=O)nc(C#Cc3ccnc(Cl)c3C)c2C)cn1` [Example 1, 4-((2-Chloro-3-methylpyridin-4-yl)ethynyl)-5-methyl-1-(6-methylpyridin-3-yl)-1H-imidazole-2-carboxamide], the pIC50 (HCN1) was 6.80 and the pIC50 (HCN3) was < 4.40.

`Cc1ccc(-n2c(C(N)=O)nc(C#Cc3csc(Cl)c3)c2C)cn1` [Example 3, 4-[2-(5-Chlorothiophen-3-yl)ethynyl]-5-methyl-1-(6-methylpyridin-3-yl)imidazole-2-carboxamide] showed a pIC50 (HCN1) of 7.00 and a pIC50 (HCN3) of 4.59.

In the case of `Cc1ccc(-n2c(C(N)=O)nc(C#Cc3cccc(C#N)c3)c2C)cn1` [Example 5, 4-((3-Cyanophenyl)ethynyl)-5-methyl-1-(6-methylpyridin-3-yl)-1H-imidazole-2-carboxamide], the pIC50 (HCN1) was 6.62 and the pIC50 (HCN3) was < 4.40.

For `Cc1ccc(-n2c(C(N)=O)nc(C#Cc3ccnc(Cl)c3F)c2C)cn1` [Example 2, 4-((2-Chloro-3-fluoropyridin-4-yl)ethynyl)-5-methyl-1-(6-methylpyridin-3-yl)-1H-imidazole-2-carboxamide], the pIC50 (HCN1) was 6.76 and the pIC50 (HCN3) was < 4.40.

In the case of `Cc1ccc(-n2c(C(N)=O)nc(C#Cc3ccnc(Cl)c3)c2C)cc1` [Example 38, 4-[2-(2-Chloro-4-pyridyl)ethynyl]-5-methyl-1-(p-tolyl)imidazole-2-carboxamide], the pIC50 (HCN1) was 6.63 and the pIC50 (HCN3) was < 4.40.

With `Cc1c(C#Cc2ccnc(Cl)c2)nc(C(N)=O)n1-c1ccc(Cl)cc1` [Example 39, 1-(4-Chlorophenyl)-4-((2-chloropyridin-4-yl)ethynyl)-5-methyl-1H-imidazole-2-carboxamide] the pIC50 (HCN1) was 6.42 and the pIC50 (HCN3) was < 4.40.

In the case of `Cc1ccc(-n2c(C(N)=O)nc(C#Cc3ccnc(Cl)c3C)c2C)nc1` [Example 28, 4-[2-(2-Chloro-3-methyl-4-pyridyl)ethynyl]-5-methyl-1-(5-methyl-2-pyridyl)imidazole-2-carboxamide], the pIC50 (HCN1) was 6.72 and the pIC50 (HCN3) was < 4.40.

In the case of `Cc1ccc(-c2c(C(N)=O)nc(C#Cc3ccnc(Cl)c3)n2C)cn1` [Example 32, 2-[2-(2-Chloro-4-pyridyl)ethynyl]-1-methyl-5-(6-methyl-3-pyridyl)imidazole-4-carboxamide], the pIC50 (HCN1) was 6.37 and the pIC50 (HCN3) was < 4.40.

Compound `Cc1ccc(-n2c(C(N)=O)nc(C#Cc3cccc(Cl)c3)c2C)cn1` [Example 4, 4-[2-(3-Chlorophenyl)ethynyl]-5-methyl-1-(6-methyl-3-pyridyl)imidazole-2-carboxamide] has a pIC50 (HCN1) of 6.65 and a pIC50 (HCN3) of 4.48.
